Assay results published in paper PMC8308021, “Indole- and Pyrazole-Glycyrrhetinic Acid Derivatives as PTP1B Inhibitors: Synthesis, In Vitro and In Silico Studies” (Molecules, 2021).
“Also recorded” adds a separate entry of the source.

Tests used:
PTP1B [1] = target: T1, PTP1B (Homo sapiens, UniProt P18031); assay: PTP1B inhibitory assay (pNPP, spectrocolorimetric); type: biochemical; conditions: pNPP substrate; three independent determinations
T1 sequence (P18031 1-435): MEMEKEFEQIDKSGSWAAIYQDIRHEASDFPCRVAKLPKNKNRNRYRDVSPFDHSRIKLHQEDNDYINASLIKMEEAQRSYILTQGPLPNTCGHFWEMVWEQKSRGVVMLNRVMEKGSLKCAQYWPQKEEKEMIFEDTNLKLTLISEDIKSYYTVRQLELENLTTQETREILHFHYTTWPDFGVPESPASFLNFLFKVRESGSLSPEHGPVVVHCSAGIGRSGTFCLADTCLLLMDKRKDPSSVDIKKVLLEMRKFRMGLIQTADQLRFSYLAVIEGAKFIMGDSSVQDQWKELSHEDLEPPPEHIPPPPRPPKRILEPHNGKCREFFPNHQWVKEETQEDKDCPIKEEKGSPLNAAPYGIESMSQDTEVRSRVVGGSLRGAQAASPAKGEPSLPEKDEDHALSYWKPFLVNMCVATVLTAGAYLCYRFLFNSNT
Description: To test the inhibitory activity of the compounds against PTP1B, a spectrocolorimetric method previously described was employed. The compounds and positive control were dissolved in DMSO or buffer solution [50 mM; Tris-HCI Buffer, pH 6.8], DL-dithiothreitol 1.5 mM, all from Sigma–Aldrich, St. Louis, MO, USA. Aliquots of 0–10 μL of testing compounds (triplicated) were incubated for 10 min at 37 °C with 85 μL of enzyme stock solution (3 μM) in buffer solution. After incubation, 5 μL of the substrate p-nitrophenyl phosphate (pNPP, 0.5 mM, Sigma–Aldrich, St. Louis, MO, USA) were added and incubated a further 25 min at 37 °C; then, the absorbance was recorded at 415 nm.

PTP1B [2] = target: T1, PTP1B; assay: Enzyme kinetics of PTP1B inhibition; type: biochemical; conditions: for Inhibition Type: best fit of competitive vs non-competitive model, Lineweaver-Burk; for Ki: non-linear regression of saturation curves at fixed inhibitor concentrations
Description: The kinetic studies were carried out under the same conditions described above. Different saturation curves were constructed at fixed inhibitor concentrations. The different inhibitor concentrations were determined based on the previously determined IC50 for each compound. Subsequently, the data obtained were analyzed through a non-linear regression, using OriginPro version 2018 (64-bit) SR1 (Northamton MA, USA, https://www.originlab.com) (accessed on 2 April 2021), adjusting to the following mathematical models:
And non-competitive: y=Vm×s^nh/(1+i/Ki)×S05^nh+(1+i/Ki)×s^nh where Vm is the maximum velocity, S and i are the concentration of substrate and inhibitor, respectively; Ki is the inhibition constant, and nh is the number of Hill.
Additionally, Lineweaver–Burk graphs were constructed to visualize the type of inhibition graphically.

IC50 (PTP1B [1]) [µM]	melting point [°C]	Ki (PTP1B [2]) [µM]	Inhibition Type (PTP1B [2]; listed as ursolic acid)	Structure (SMILES)	Inhibition Type (PTP1B [2])
7.5 ± 0.22	263 to 266			CC1(C)c2c(cnn2-c2ccc(Cl)cc2)C[C@@]2(C)C1CC[C@]1(C)C2C(=O)C=C2C3C[C@@](C)(C(=O)O)CC[C@]3(C)CC[C@]21C (stereo partly drawn) [Compound 5e]	
4.8 ± 0.2	208 to 211			COc1ccc(-n2ncc3c2C(C)(C)C2CC[C@]4(C)C(C(=O)C=C5C6C[C@@](C)(C(=O)O)CC[C@]6(C)CC[C@]54C)[C@@]2(C)C3)cc1 (stereo partly drawn) [Compound 5b]	
5.1 ± 0.56	243 to 245			CC1(C)c2c(cnn2-c2ccccc2)C[C@@]2(C)C1CC[C@]1(C)C2C(=O)C=C2C3C[C@@](C)(C(=O)O)CC[C@]3(C)CC[C@]21C (stereo partly drawn) [Compound 5a]	
4.4 ± 0.07	270 to 271	4.6 ± 0.6		CC1(C(=O)O)CCC2(C)CCC3(C)C(=CC(=O)C4C5(C)Cc6cnn(-c7ccc(C(F)(F)F)cc7)c6C(C)(C)C5CCC43C)C2C1 (stereo not drawn) [Compound 5f]	non-competitive inhibition; also recorded: non-competitive inhibitors
4.8 ± 0.3				Cc1ccc(-n2ncc3c2C(C)(C)C2CC[C@]4(C)C(C(=O)C=C5C6C[C@@](C)(C(=O)O)CC[C@]6(C)CC[C@]54C)[C@@]2(C)C3)cc1 (stereo partly drawn) [Compound 5c]	
9.6 ± 0.2	260 to 264			CC1(C)c2c(cnn2-c2ccc(F)cc2)C[C@@]2(C)C1CC[C@]1(C)C2C(=O)C=C2C3C[C@@](C)(C(=O)O)CC[C@]3(C)CC[C@]21C (stereo partly drawn) [Compound 5d]	

The next lines start with the molecule.

Structure (SMILES)	IC50 (PTP1B [1]) [µM]	melting point [°C]	Ki (PTP1B [2]) [µM]	Inhibition Type (PTP1B [2]; listed as ursolic acid)	Inhibition Type (PTP1B [2])
CC1(C)c2[nH]c3ccccc3c2C[C@@]2(C)C1CC[C@]1(C)C2C(=O)C=C2C3C[C@@](C)(C(=O)O)CC[C@]3(C)CC[C@]21C (stereo partly drawn) [Compound 4a]	6.6 ± 0.13	245 to 248			
CC1(C(=O)O)CCC2(C)CCC3(C)C(=CC(=O)C4C5(C)Cc6c([nH]c7ccc(C(F)(F)F)cc67)C(C)(C)C5CCC43C)C2C1 (stereo not drawn) [Compound 4f]	2.5 ± 0.03		3.9 ± 0.5		non-competitive inhibition; also recorded: non-competitive inhibitors
CC1(C)c2[nH]c3ccc(Cl)cc3c2C[C@@]2(C)C1CC[C@]1(C)C2C(=O)C=C2C3C[C@@](C)(C(=O)O)CC[C@]3(C)CC[C@]21C (stereo partly drawn) [Compound 4e]	10.1 ± 0.21	256 to 258			
COc1ccc2[nH]c3c(c2c1)C[C@@]1(C)C(CC[C@]2(C)C1C(=O)C=C1C4C[C@@](C)(C(=O)O)CC[C@]4(C)CC[C@]12C)C3(C)C (stereo partly drawn) [Compound 4b]	4.3 ± 0.26	243 to 244			
C[C@H]1[C@H](C)CC[C@]2(C(=O)O)CC[C@]3(C)C(=CC[C@@H]4[C@@]5(C)CC[C@H](O)C(C)(C)[C@@H]5CC[C@]43C)[C@H]12 [UA, ursolic acid]				non-competitive inhibitor	non-competitive inhibition
CC1(C)c2[nH]c3ccc(F)cc3c2C[C@@]2(C)C1CC[C@]1(C)C2C(=O)C=C2C3C[C@@](C)(C(=O)O)CC[C@]3(C)CC[C@]21C (stereo partly drawn) [Compound 4d]	5.2 ± 0.22	245 to 248			
CC1(C)[C@@H](OC(=O)CCC(=O)O)CC[C@]2(C)[C@H]3C(=O)C=C4[C@@H]5C[C@@](C)(C(=O)O)CC[C@]5(C)CC[C@@]4(C)[C@]3(C)CC[C@@H]12 [CA, carbenoxolone, reference compound]	69.7 ± 6.98				
Cc1ccc2[nH]c3c(c2c1)C[C@@]1(C)C(CC[C@]2(C)C1C(=O)C=C1C4C[C@@](C)(C(=O)O)CC[C@]4(C)CC[C@]12C)C3(C)C (stereo partly drawn) [Compound 4c]	8.3 ± 0.1	268 to 271			
CC(C)CCC[C@@H](C)[C@H]1CC[C@H]2[C@@H]3C[C@@H](NCCCNCCCCNCCCN)[C@H]4C[C@@H](O)CC[C@]4(C)[C@H]3CC[C@]12C [CL, claramine]	13.7 ± 0.11		15.4 ± 1.7		non-competitive inhibition
Cc1ccc(C(=O)Nc2ccc(S(=O)(=O)O)c3cc(S(=O)(=O)O)cc(S(=O)(=O)O)c23)cc1NC(=O)c1cccc(NC(=O)Nc2cccc(C(=O)Nc3cc(C(=O)Nc4ccc(S(=O)(=O)O)c5cc(S(=O)(=O)O)cc(S(=O)(=O)O)c45)ccc3C)c2)c1 [SU, suramin]					competitive inhibition; also recorded: competitive inhibitor
